Measurements published in publication PMC10092094 (Chemmedchem, 2022).
“Also recorded” adds a separate entry of the source.

Assays:
OGG1 [1] = molecular target: T1, OGG1 (Homo sapiens, UniProt O15527); assay: Differential scanning fluorimetry; format: binding
OGG1 [2] = molecular target: T1, OGG1; assay: biochemical
[3] = IC50, biochemical inhibition, single replicate
[4] = IC50 (CI95), biochemical inhibition, confidence interval 95 in parentheses
[5] = confidence interval 95 in parentheses

T1 sequence (O15527 whole entry): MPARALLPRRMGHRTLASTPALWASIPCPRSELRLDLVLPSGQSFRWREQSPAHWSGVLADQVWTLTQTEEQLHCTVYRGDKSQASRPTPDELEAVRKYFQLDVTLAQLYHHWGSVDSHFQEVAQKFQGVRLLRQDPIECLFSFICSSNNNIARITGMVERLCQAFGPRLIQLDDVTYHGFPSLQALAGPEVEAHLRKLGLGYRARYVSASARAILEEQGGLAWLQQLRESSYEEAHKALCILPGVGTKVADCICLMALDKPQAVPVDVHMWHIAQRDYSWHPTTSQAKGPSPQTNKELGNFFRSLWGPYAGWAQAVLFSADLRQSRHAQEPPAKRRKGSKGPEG

| DSF stabilization (ΔT) (OGG1 [1]) [K] | IC50 (OGG1 [2]; [4]) [nM] | Compound | further results |
| --- | --- | --- | --- |
| 2.2 | – | Cc1cccc2[nH]c(=O)n(C3CCN(C(=O)Nc4ccc(I)cc4)CC3)c12 [Compound 23, 4‐(7‐methyl‐2‐oxo‐2,3‐dihydro‐1H‐1,3‐benzodiazol‐1‐yl)‐N‐(4‐iodophenyl)piperidine‐1‐carboxamide] | IC50 (OGG1 [2]; [3]): 8700 nM |
| 3.9 | 2200 | O=C(Nc1ccc(I)cc1)N1CCC(n2c(=O)[nH]c3c(F)cccc32)CC1 [Compound 24, 4‐(4‐fluoro‐2‐oxo‐2,3‐dihydro‐1H‐1,3‐benzodiazol‐1‐yl)‐N‐(4‐iodophenyl)piperidine‐1‐carboxamide] | – |
| 1.6 | 1600 | O=C(Nc1ccc(C(F)(F)F)cc1)N1CCC(n2c(=O)[nH]c3c(Br)cccc32)CC1 [Compound 49, 4‐(4‐bromo‐2‐oxo‐2,3‐dihydro‐1H‐1,3‐benzodiazol‐1‐yl)‐N‐[4‐(trifluoromethyl)phenyl]piperidine‐1‐carboxamide] | – |
| 4.1 | – | COc1ccc(NC(=O)N2CCC(n3c(=O)[nH]c4c(Br)cccc43)CC2)cc1 [Compound 47, 4‐(4‐bromo‐2‐oxo‐2,3‐dihydro‐1H‐1,3‐benzodiazol‐1‐yl)‐N‐(4‐methoxyphenyl)piperidine‐1‐carboxamide] | IC50 (OGG1 [2]; [3]): 3100 nM |
| 4.2 | 910 | COc1cccc2c1[nH]c(=O)n2C1CCN(C(=O)Nc2ccc(I)cc2)CC1 [Compound 27, 4‐(4‐methoxy‐2‐oxo‐2,3‐dihydro‐1H‐1,3‐benzodiazol‐1‐yl)‐N‐(4‐iodophenyl)piperidine‐1‐carboxamide] | – |
| – | 32200 | CN(C)c1ccc(NC(=O)N2CCC(n3c(=O)[nH]c4c(Br)cccc43)CC2)cc1 [Compound 52, 4‐(4‐bromo‐2‐oxo‐2,3‐dihydro‐1H‐1,3‐benzodiazol‐1‐yl)‐N‐[4‐(dimethylamino)phenyl]piperidine‐1‐carboxamide] | – |
| – | 2000 | COc1cc(NC(=O)N2CCC(n3c(=O)[nH]c4c(OC)cccc43)CC2)ccc1C [TH9525, 4‐(4‐methoxy‐2‐oxo‐2,3‐dihydro‐1H‐1,3‐benzodiazol‐1‐yl)‐N‐(3‐methoxy‐4‐methylphenyl)piperidine‐1‐carboxamide] | – |

Continued, compound first:

| Compound | DSF stabilization (ΔT) (OGG1 [1]) [K] | IC50 (OGG1 [2]; [4]) [nM] | further results |
| --- | --- | --- | --- |
| O=C(Nc1ccc(Cl)c(Cl)c1)N1CCC(n2c(=O)[nH]c3cc(Cl)ccc32)CC1 [Compound 19, 4‐(5‐chloro‐2‐oxo‐2,3‐dihydro‐1H‐1,3‐benzodiazol‐1‐yl)‐N‐(3,4‐dichlorophenyl)piperidine‐1‐carboxamide] | 3.1 | – | – |
| O=C(Nc1ccc(Cl)c(Cl)c1)N1CCC(n2c(=O)[nH]c3ccccc32)CC1 [Compound 9, N‐(3,4‐dichlorophenyl)‐4‐(2‐oxo‐2,3‐dihydro‐1H‐1,3‐benzodiazol‐1‐yl)piperidine‐1‐carboxamide] | 4.7 | 2900 | – |
| O=C(Nc1cccc(F)c1)N1CCC(n2c(=O)[nH]c3cc(Cl)ccc32)CC1 [Compound 12, 4‐(5‐chloro‐2‐oxo‐2,3‐dihydro‐1H‐1,3‐benzodiazol‐1‐yl)‐N‐(3‐fluorophenyl)piperidine‐1‐carboxamide] | 2.4 | 35100 | – |
| COc1ncc(NC(=O)N2CCC(n3c(=O)[nH]c4c(Br)cccc43)CC2)cc1C [Compound 35, 4‐(4‐bromo‐2‐oxo‐2,3‐dihydro‐1H‐1,3‐benzodiazol‐1‐yl)‐N‐(6‐methoxy‐5‐methylpyridin‐3‐yl)piperidine‐1‐carboxamide] | – | – | Activity against OGG1 (in words) (OGG1 [2]): only weakly active |
| CC(=O)Nc1ccc(NC(=O)N2CCC(n3c(=O)[nH]c4c(Br)cccc43)CC2)cc1 [Compound 51, 4‐(4‐bromo‐2‐oxo‐2,3‐dihydro‐1H‐1,3‐benzodiazol‐1‐yl)‐N‐(4‐acetamidophenyl)piperidine‐1‐carboxamide] | – | – | IC50 (CI95), biochemical inhibition (OGG1 [2]; [5]): no effect |
| CCOC(=O)c1ccc(NC(=O)N2CCC(n3c(=O)[nH]c4c(Br)cccc43)CC2)cc1 [Compound 50, Ethyl‐4‐{[4‐(4‐bromo‐2‐oxo‐2,3‐dihydro‐1H‐1,3‐benzodiazol‐1‐yl)‐piperidine‐1‐carbonyl]‐amino}‐benzoate] | – | – | IC50 (CI95), biochemical inhibition (OGG1 [2]; [5]): no effect |
| Cc1cccc2c1[nH]c(=O)n2C1CCN(C(=O)Nc2ccc(I)cc2)CC1 [Compound 20, 4‐(4‐methyl‐2‐oxo‐2,3‐dihydro‐1H‐1,3‐benzodiazol‐1‐yl)‐N‐(4‐iodophenyl)piperidine‐1‐carboxamide] | 3.8 | 630 | – |
| O=C(Nc1ccc(Cl)cc1)N1CCC(n2c(=O)[nH]c3cc(Cl)ccc32)CC1 [Compound 16, 4‐(5‐chloro‐2‐oxo‐2,3‐dihydro‐1H‐1,3‐benzodiazol‐1‐yl)‐N‐(4‐chlorophenyl)piperidine‐1‐carboxamide] | 3.8 | 2000 | – |
| O=C(Nc1ccc(Cl)cc1)N1CCC(n2c(=O)[nH]c3ccccc32)CC1 [Compound 6, N‐(4‐chlorophenyl)‐4‐(2‐oxo‐2,3‐dihydro‐1H‐1,3‐benzodiazol‐1‐yl)piperidine‐1‐carboxamide] | 4.6 | 5500 | IC50 (OGG1 [2]; IC50 of HTS hit, concentration-response of screening hits): 10000 nM |
| O=C(Cc1ccc(I)cc1)N1CCC(n2c(=O)[nH]c3c(Br)cccc32)CC1 [Compound 30, 4‐bromo‐1‐{1‐[2‐(4‐iodophenyl)acetyl]piperidin‐4‐yl}‐2,3‐dihydro‐1H‐1,3‐benzodiazol‐2‐one] | – | – | Activity against OGG1 (in words) (OGG1 [2]): no or a very low activity |
| O=C(Nc1ccc(I)cc1)N1CCC(n2c(=O)oc3c(Br)cccc32)CC1 [Compound 42, 4‐(7‐bromo‐2‐oxo‐2,3‐dihydro‐1,3‐benzoxazol‐3‐yl)‐N‐(4‐iodophenyl)piperidine‐1‐carboxamide] | – | – | Activity against OGG1 (in words) (OGG1 [2]): neither of which had a pronounced effect on inhibiting or stabilizing OGG1 |
| Cc1ccc(NC(=O)N2CCC(n3c(=O)[nH]c4ccccc43)CC2)cc1 [Compound 4, N‐(4‐methylphenyl)‐4‐(2‐oxo‐2,3‐dihydro‐1H‐1,3‐benzodiazol‐1‐yl)piperidine‐1‐carboxamide] | 3.1 | 19900 | – |
| CN(C(=O)N1CCC(n2c(=O)[nH]c3c(Br)cccc32)CC1)c1ccc(Cl)c(Cl)c1 [Compound 29, 4‐(4‐bromo‐2‐oxo‐2,3‐dihydro‐1H‐1,3‐benzodiazol‐1‐yl)‐N‐(3,4‐dichlorophenyl)‐N‐methylpiperidine‐1‐carboxamide] | – | – | Activity against OGG1 (in words) (OGG1 [2]): no or a very low activity |
| O=C(Nc1ccc(Br)cc1)N1CCC(n2c(=O)[nH]c3cc(Cl)ccc32)CC1 [Compound 17, 4‐(5‐chloro‐2‐oxo‐2,3‐dihydro‐1H‐1,3‐benzodiazol‐1‐yl)‐N‐(4‐bromophenyl)piperidine‐1‐carboxamide] | 4.1 | – | IC50 (OGG1 [2]; [3]): 1600 nM |
| O=C(Nc1ccccc1)N1CCC(n2c(=O)[nH]c3cc(Cl)ccc32)CC1 [Compound 11, 4‐(5‐chloro‐2‐oxo‐2,3‐dihydro‐1H‐1,3‐benzodiazol‐1‐yl)‐N‐phenylpiperidine‐1‐carboxamide] | 3.3 | – | – |
| O=C(NC1CCCCC1)N1CCC(n2c(=O)[nH]c3c(Br)cccc32)CC1 [Compound 32, 4‐(4‐bromo‐2‐oxo‐2,3‐dihydro‐1H‐1,3‐benzodiazol‐1‐yl)‐N‐cyclohexylpiperidine‐1‐carboxamide] | – | – | Activity against OGG1 (in words) (OGG1 [2]): only weakly active |
| O=C(Nc1ccc([N+](=O)[O-])cc1)N1CCC(n2c(=O)[nH]c3c(Br)cccc32)CC1 [Compound 48, 4‐(4‐bromo‐2‐oxo‐2,3‐dihydro‐1H‐1,3‐benzodiazol‐1‐yl)‐N‐(4‐nitrophenyl)piperidine‐1‐carboxamide] | – | – | IC50 (CI95), biochemical inhibition (OGG1 [2]; [5]): no effect |
| O=C(Oc1ccc(Cl)cc1)N1CCC(n2c(=O)[nH]c3c(Br)cccc32)CC1 [Compound 31, 4‐chlorophenyl 4‐(4‐bromo‐2‐oxo‐2,3‐dihydro‐1H‐1,3‐benzodiazol‐1‐yl)piperidine‐1‐carboxylate] | – | – | Activity against OGG1 (in words) (OGG1 [2]): no or a very low activity |
| O=C(c1ccc(I)cc1)N1CCC(n2c(=O)[nH]c3c(Br)cccc32)CC1 [Compound 33, 4‐bromo‐1‐[1‐(4‐iodobenzoyl)piperidin‐4‐yl]‐2,3‐dihydro‐1H‐1,3‐benzodiazol‐2‐one] | – | – | Activity against OGG1 (in words) (OGG1 [2]): no or a very low activity |
| O=C(Nc1ccc(F)cc1)N1CCC(n2c(=O)[nH]c3cc(Cl)ccc32)CC1 [Compound 15, 4‐(5‐chloro‐2‐oxo‐2,3‐dihydro‐1H‐1,3‐benzodiazol‐1‐yl)‐N‐(4‐fluorophenyl)piperidine‐1‐carboxamide] | – | – | IC50 (CI95), biochemical inhibition (OGG1 [2]; [5]): no effect |
| O=c1[nH]c2c(Br)cccc2n1C1CCN(S(=O)(=O)c2ccc(I)cc2)CC1 [Compound 34, 4‐bromo‐1‐[1‐(4‐iodobenzenesulfonyl)piperidin‐4‐yl]‐2,3‐dihydro‐1H‐1,3‐benzodiazol‐2‐one] | – | – | Activity against OGG1 (in words) (OGG1 [2]): no or a very low activity |
| O=C(Nc1ccc(I)cc1)N1CCC(n2c(=O)[nH]c3cc(Cl)ccc32)CC1 [Compound 18, 4‐(5‐chloro‐2‐oxo‐2,3‐dihydro‐1H‐1,3‐benzodiazol‐1‐yl)‐N‐(4‐iodophenyl)piperidine‐1‐carboxamide] | 1.6 | – | – |
| O=C(Nc1ccc(I)cc1)N1CCC(n2cnc3c(Br)cccc32)CC1 [Compound 41, 4‐(4‐bromo‐1H‐1,3‐benzodiazol‐1‐yl)‐N‐(4‐iodophenyl)piperidine‐1‐carboxamide] | – | – | Activity against OGG1 (in words) (OGG1 [2]): neither of which had a pronounced effect on inhibiting or stabilizing OGG1 |
| Cc1ccc2[nH]c(=O)n(C3CCN(C(=O)Nc4ccc(I)cc4)CC3)c2c1 [Compound 22, 4‐(6‐methyl‐2‐oxo‐2,3‐dihydro‐1H‐1,3‐benzodiazol‐1‐yl)‐N‐(4‐iodophenyl)piperidine‐1‐carboxamide] | – | – | IC50 (CI95), biochemical inhibition (OGG1 [2]; [5]): inactivity; also recorded: no effect |
